Like-named read-outs stand apart in the source and are kept apart here.
Assays:
[1] = target: T1, hSERT (Homo sapiens, UniProt P31645); assay: hSERT binding assay (Assay 1)
T1 construct: expressed in transfected cells; host or cells: HEK-293 derived cell line, stably transfected; membrane preparation
Outline: (§1)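 Membranes from HEK-293 cells stably expressing human NET or SERT competed test compound against ^3H-nisoxetine (hNET) or ^3H-citalopram (hSERT). Buffer was 50 mM Tris-HCl pH 7.4, 120 mM NaCl, 5 mM KCl, 0.1% BSA and 400 μM ascorbic acid.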

[2] = target: T2, hNET (Homo sapiens, UniProt P23975); assay: hNET binding assay (Assay 1); settings: read-out: NET pKi (converted)
T2 construct: expressed in transfected cells; host or cells: HEK-293 derived cell line, stably transfected; membrane preparation
Outline: as §1

[3] = ratio of SERT Ki to NET Ki (binding)
[4] = ratio of SERT Ki to NET Ki from binding assays
[5] = ratio of binding Ki at hSERT to Ki at hNET, rounded off to the nearest tenth
[6] = membranes of HEK-293 cells expressing hNET, 1.0 nM 3H-nisoxetine
[7] = ratio of binding Ki at SERT to Ki at NET, the tables list only compounds with a ratio in the range 0.1-100
[8] = hNET binding, the tables list only compounds with NET pKi≧8

T1 sequence (P31645 whole entry): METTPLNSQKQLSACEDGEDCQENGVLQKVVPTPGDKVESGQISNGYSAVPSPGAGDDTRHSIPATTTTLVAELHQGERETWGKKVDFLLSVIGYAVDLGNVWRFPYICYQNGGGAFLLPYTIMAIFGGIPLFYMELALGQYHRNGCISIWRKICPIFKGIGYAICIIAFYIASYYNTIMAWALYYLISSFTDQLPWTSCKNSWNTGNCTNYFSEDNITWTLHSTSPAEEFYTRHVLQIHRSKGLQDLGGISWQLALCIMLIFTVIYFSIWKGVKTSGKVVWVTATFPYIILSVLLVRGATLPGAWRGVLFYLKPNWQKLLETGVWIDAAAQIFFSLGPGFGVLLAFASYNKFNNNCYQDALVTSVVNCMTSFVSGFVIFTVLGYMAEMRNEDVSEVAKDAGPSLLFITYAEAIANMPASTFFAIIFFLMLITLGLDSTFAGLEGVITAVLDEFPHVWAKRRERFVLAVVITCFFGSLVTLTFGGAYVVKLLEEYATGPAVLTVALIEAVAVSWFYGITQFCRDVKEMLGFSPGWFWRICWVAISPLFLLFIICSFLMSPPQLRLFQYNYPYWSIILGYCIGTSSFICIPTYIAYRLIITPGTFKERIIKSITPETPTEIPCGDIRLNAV
T2 sequence (P23975 whole entry): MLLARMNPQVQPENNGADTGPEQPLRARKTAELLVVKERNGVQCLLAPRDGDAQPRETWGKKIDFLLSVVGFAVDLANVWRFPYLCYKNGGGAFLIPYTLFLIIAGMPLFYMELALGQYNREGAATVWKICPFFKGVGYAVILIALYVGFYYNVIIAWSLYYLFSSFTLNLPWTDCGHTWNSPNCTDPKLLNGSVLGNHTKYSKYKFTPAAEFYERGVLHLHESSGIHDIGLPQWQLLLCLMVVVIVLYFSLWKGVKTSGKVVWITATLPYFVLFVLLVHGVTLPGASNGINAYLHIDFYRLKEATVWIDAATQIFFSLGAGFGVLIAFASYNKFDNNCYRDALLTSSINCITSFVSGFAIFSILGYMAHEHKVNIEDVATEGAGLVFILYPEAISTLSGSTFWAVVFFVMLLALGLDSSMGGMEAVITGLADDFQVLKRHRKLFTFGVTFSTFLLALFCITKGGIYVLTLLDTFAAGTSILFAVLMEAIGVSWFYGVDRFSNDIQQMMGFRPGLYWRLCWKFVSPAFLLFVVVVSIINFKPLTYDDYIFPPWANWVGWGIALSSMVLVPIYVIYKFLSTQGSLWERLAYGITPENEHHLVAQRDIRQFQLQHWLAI

| Compound | SERT Ki/NET Ki [1, 3] | Ki ([2]; hNET binding) [nM] | SERT Ki/NET Ki [1, 5] | Ki [2, 6] [nM] | further results |
| --- | --- | --- | --- | --- | --- |
| Cc1ccc(F)c(O[C@H](c2ccccc2)[C@@H]2CCNC2)c1F [40-24] | 0.4 | 1.58 | – | – | – |
| Cc1cccc(Cl)c1O[C@@H](c1ccccc1)[C@H]1CCNC1 [31-12] | – | – | – | – | SERT Ki/NET Ki [1, 4]: 1.6; Ki ([2]; hNET binding assay): 1 nM |
| CCc1cc(F)ccc1OC(c1cc(F)cc(F)c1)C1CCNC1 (stereo not drawn) [28-14] | – | – | – | – | SERT Ki/NET Ki [1, 4]: 3.2; Ki ([2]; hNET binding assay): 1.58 nM |
| Ic1cccc(OC(c2ccccc2)C2CCNC2)c1 (stereo not drawn) [Compound 21-6] | – | – | 0.2 | 3.98 | – |
| COc1ccccc1O[C@H](c1cccc(Cl)c1)[C@@H]1CCNC1 (racemic) [Compound 20-20] | – | – | 13 | 2.51 | – |
| Fc1ccccc1C(Oc1cccc(Cl)c1Cl)C1CCNC1 (stereo not drawn) [Compound 26-1] | – | – | – | – | SERT Ki/NET Ki [1, 4]: 0.1; Ki ([2]; hNET binding assay): 1.58 nM |
| Fc1c(Cl)cccc1OC(c1ccccc1)C1CCNC1 (stereo not drawn) [Compound 25-3] | – | – | 0.5 | 0.794 | – |
| Fc1cc(Cl)cc(OC(c2ccccc2)C2CCNC2)c1 (stereo not drawn) [34-5] | – | – | – | – | SERT Ki/NET Ki [1, 4]: 0.1; Ki ([2]; hNET binding assay): 3.16 nM |
| COc1cccc(C(Oc2cccc(Cl)c2Cl)C2CCNC2)c1 (stereo not drawn) [Compound 26-6] | – | – | – | – | SERT Ki/NET Ki [1, 4]: 0.1; Ki ([2]; hNET binding assay): 3.98 nM |
| Fc1cc(F)c(OC(c2ccccc2)C2CCNC2)cc1F (stereo not drawn) [42-1] | 1.6 | 7.94 | – | – | – |
| Fc1cc(F)cc(C(Oc2cc(Cl)ccc2F)C2CCNC2)c1 (stereo not drawn) [30-1] | – | – | – | – | SERT Ki/NET Ki [1, 4]: 3.2; Ki ([2]; hNET binding assay): 1.26 nM |
| COc1ccccc1O[C@@H](c1cc(C)cc(F)c1)[C@H]1CCNC1 (racemic) [Compound 20-36] | – | – | 7.9 | 1.26 | – |
| CCc1cc(F)cc(F)c1O[C@@H](c1ccccc1)[C@H]1CCNC1 [44-4] | – | – | – | – | SERT Ki/NET Ki [1, 7]: 0.3; Ki [2, 8]: 0.631 nM |
| COc1ccc(Cl)cc1OC(c1ccccc1)C1CCNC1 (stereo not drawn) [29-22] | – | – | – | – | SERT Ki/NET Ki [1, 4]: 2.5; Ki ([2]; hNET binding assay): 2.51 nM |
| COc1ccc(F)c(OC(c2ccccc2)C2CCNC2)c1Cl (stereo not drawn) [40-35] | 0.3 | 0.398 | – | – | – |
| N#Cc1cccc([C@H](Oc2c(F)ccc(F)c2Cl)[C@H]2CCNC2)c1 [41-32] | 40 | 0.398 | – | – | – |
| Fc1cccc(O[C@@H](c2ccccc2)[C@H]2CCNC2)c1Cl [Ex. 9-4, (S)-3-[(R)-(2-chloro-3-fluorophenoxy)phenylmethyl]pyrrolidine] | – | – | 6.3 | 0.631 | – |
| Clc1cc(Cl)c(Cl)c(O[C@H](c2ccccc2Cl)[C@@H]2CCNC2)c1 (racemic) [39-4] | 0.1 | 3.98 | – | – | – |
| Fc1ccc(Cl)c(F)c1OC(c1ccccc1)C1CCNC1 (stereo not drawn) [40-14] | 0.4 | 0.501 | – | – | – |
| Cc1ccc(F)c(OC(c2cc(F)cc(F)c2)C2CCNC2)c1Cl (stereo not drawn) [41-28] | 6.3 | 0.316 | – | – | – |

| Compound | SERT Ki/NET Ki [1, 3] | Ki ([2]; hNET binding) [nM] | SERT Ki/NET Ki [1, 5] | Ki [2, 6] [nM] | further results |
| --- | --- | --- | --- | --- | --- |
| Fc1cc(F)c(F)c(OC(c2ccccc2Cl)C2CCNC2)c1 (stereo not drawn) [39-2] | 0.6 | 6.31 | – | – | – |
| Cc1cccc([C@@H](Oc2ccccc2Cl)[C@@H]2CCNC2)c1 (racemic) [Compound 20-6] | – | – | 1.6 | 3.98 | – |
| Cc1ccc(OC(c2ccccc2)C2CCNC2)cc1 (stereo not drawn) [Compound 23-6] | – | – | 0.2 | 6.31 | – |
| Cc1ccc(Cl)c(OC(c2cccc(C#N)c2)C2CCNC2)c1Cl (stereo not drawn) [41-14] | 7.9 | 0.631 | – | – | – |
| Fc1c(Cl)ccc(O[C@@H](c2ccccc2)[C@H]2CCNC2)c1F [36-3] | 0.1 | 6.31 | – | – | – |
| Cc1cccc(OC(c2ccccc2)C2CCNC2)c1C (stereo not drawn) [Compound 25-23] | – | – | 0.1 | 1.58 | – |
| Cc1cccc(OC(c2ccccc2)C2CCNC2)c1 (stereo not drawn) [Compound 21-7] | – | – | 0.5 | 3.98 | – |
| Cc1ccc(F)c(OC(c2cc(F)cc(F)c2)C2CCNC2)c1Cl (stereo not drawn) [41-29] | 0.5 | 0.251 | – | – | – |
| COc1ccc(F)cc1O[C@H](c1ccccc1)[C@@H]1CCNC1 [29-25] | – | – | – | – | SERT Ki/NET Ki [1, 4]: 0.3; Ki ([2]; hNET binding assay): 7.94 nM |
| Fc1cc(Cl)cc(C(Oc2ccc(Cl)cc2F)C2CCNC2)c1 (stereo not drawn) [28-11] | – | – | – | – | SERT Ki/NET Ki [1, 4]: 0.8; Ki ([2]; hNET binding assay): 2.51 nM |
| Fc1c(F)c(F)c(O[C@@H](c2ccccc2)[C@H]2CCNC2)c(F)c1F [49-1] | – | – | – | – | SERT Ki/NET Ki [1, 7]: 2.5; Ki [2, 8]: 3.98 nM |
| Fc1cc(F)cc(C(Oc2ccc(F)c(F)c2F)C2CCNC2)c1 (stereo not drawn) [37-1] | 4 | 5.01 | – | – | – |
| Clc1cc(Cl)cc(OC(c2ccccc2Cl)C2CCNC2)c1 (stereo not drawn) [35-3] | 0.1 | 3.16 | – | – | – |
| CCC(=O)c1ccccc1OC(c1ccccc1)C1CCNC1 (stereo not drawn) [Compound 19-26] | – | – | 50 | 3.98 | – |
| Cc1ccc(Cl)c(O[C@H](c2ccccc2)[C@@H]2CCNC2)c1F [40-28] | 0.4 | 0.794 | – | – | – |
| Fc1ccc(F)c(OC(c2ccccc2)C2CCNC2)c1 (racemic) [29-1] | – | – | – | – | SERT Ki/NET Ki [1, 4]: 4; Ki ([2]; hNET binding assay): 2 nM |
| Cc1ccc(Cl)c(OC(c2cc(F)cc(F)c2)C2CCNC2)c1F (stereo not drawn) [41-8] | 7.9 | 0.398 | – | – | – |
| Fc1ccc(Cl)c(Cl)c1OC(c1ccccc1)C1CCNC1 (stereo not drawn) [40-13] | 0.3 | 0.2 | – | – | – |
| CC(C)Oc1ccccc1OC(c1ccccc1)C1CCNC1 (stereo not drawn) [Compound 19-17] | – | – | 40 | 3.16 | – |
| COc1ccc(F)c(F)c1OC(c1cc(F)cc(F)c1)C1CCNC1 (stereo not drawn) [41-4] | 1 | 1 | – | – | – |

| Compound | SERT Ki/NET Ki [1, 3] | Ki ([2]; hNET binding) [nM] | SERT Ki/NET Ki [1, 5] | Ki [2, 6] [nM] | further results |
| --- | --- | --- | --- | --- | --- |
| Cc1ccc(Cl)c(OC(c2ccccc2Cl)C2CCNC2)c1Cl (stereo not drawn) [41-18] | 0.4 | 1.58 | – | – | – |
| Fc1ccc(O[C@@H](c2ccccc2)[C@H]2CCNC2)c(F)c1F [36-1] | 0.8 | 6.31 | – | – | – |
| Cc1ccc(F)c(O[C@@H](c2ccccc2)[C@@H]2CCNC2)c1Cl [40-30] | 0.1 | 5.01 | – | – | – |
| Clc1cccc(C(Oc2ccccc2Cl)C2CCNC2)c1 (stereo not drawn) [Compound 20-5] | – | – | 1.6 | 2.51 | – |
| Fc1cc(F)cc(C(Oc2c(F)ccc(Cl)c2F)C2CCNC2)c1 (stereo not drawn) [41-5] | 50 | 0.2 | – | – | – |
| Cc1c(Cl)cccc1OC(c1ccccc1)C1CCNC1 (stereo not drawn) [Compound 25-20] | – | – | 0.2 | 0.631 | – |
| Fc1cccc(Cl)c1O[C@@H](c1ccccc1)[C@H]1CCNC1 [31-4] | – | – | – | – | SERT Ki/NET Ki [1, 4]: 40; Ki ([2]; hNET binding assay): 0.126 nM |
| COc1ccccc1OC(c1cccc(F)c1)C1CCNC1 (stereo not drawn) [Compound 20-15] | – | – | 4 | 5.01 | – |
| COc1ccccc1OC(c1cccc(CO)c1)C1CCNC1 (stereo not drawn) [Compound 20-26] | – | – | 10 | 3.98 | – |
| COc1ccccc1OC(c1ccc(Cl)cc1)C1CCNC1 (stereo not drawn) [Compound 20-21] | – | – | 4 | 2 | – |
| CCc1ccccc1OC(c1ccccc1)C1CCNC1 (stereo not drawn) [Compound 19-11] | – | – | 4 | 3.16 | – |
| COC(=O)c1c(F)cccc1OC(c1ccccc1)C1CCNC1 (stereo not drawn) [Compound 25-34] | – | – | 100 | 1 | – |
| COC(=O)c1cc(F)cc(F)c1O[C@@H](c1ccccc1)[C@H]1CCNC1 [44-28] | – | – | – | – | SERT Ki/NET Ki [1, 7]: 2.5; Ki [2, 8]: 1 nM |
| COc1ccccc1OC(c1ccccc1Cl)C1CCNC1 (stereo not drawn) [Compound 20-16] | – | – | 4 | 1.26 | – |
| Clc1ccccc1OC(c1ccccc1Cl)C1CCNC1 (stereo not drawn) [Compound 20-1] | – | – | 0.5 | 3.16 | – |
| Fc1cc(F)cc(C(Oc2c(Cl)c(F)cc(F)c2Cl)C2CCNC2)c1 (stereo not drawn) [48-1] | – | – | – | – | SERT Ki/NET Ki [1, 7]: 2; Ki [2, 8]: 0.501 nM |
| CSc1ccccc1OC(c1ccccc1)C1CCNC1 (stereo not drawn) [Compound 19-30] | – | – | 63 | 0.398 | – |
| Clc1ccc(Oc2cccc(OC(c3ccccc3)C3CCNC3)c2)cc1 (stereo not drawn) [Compound 21-16] | – | – | 0.3 | 6.31 | – |
| Cc1cc(F)ccc1OC(c1ccccc1)C1CCNC1 (stereo not drawn) [27-13] | – | – | – | – | SERT Ki/NET Ki [1, 4]: 0.3; Ki ([2]; hNET binding assay): 3.16 nM |
| COc1ccccc1OC(c1ccccc1Cl)C1CCNC1 (stereo not drawn) [Compound 20-17] | – | – | 13 | 1 | – |

Source: patent US7888386B2, “3-(phenoxyphenylmethyl)pyrrolidine compounds” (Theravance, Inc., priority 2008, dated 2011)
